The target in one test is T1, HIV-1 protease (Human immunodeficiency virus type 1 group M subtype B, UniProt P04585).
T1 construct: The protease (or proteinase) enzyme, consisting of only 99 amino acids
As to the kind of experiment: In vitro HIV protease inhibitory assay (fluorescently labeled substrate). It is filed as biochemical. The conditions noted are these: pH 5.5, one hour, room temperature. On the procedure:
The HIV protease screening assay is based on a fluorescently labeled substrate which can be resolved from nonlabeled cleavage product using avidin-polystyrene particles, 0.7-0.9 μm. The substrate is biotinylated at the amino terminal arginine and fluorescently labeled with fluorescein isothiocynate (FITC) at the carboxyl terminal lysine. This assay has been employed to detect novel, nonpeptidic inhibitors of HIV-1 protease. Substrate (20 μl of 0.2 μM), sample (10 μl of desired concentration), and enzyme (10 μl of 0.1 μM) are added to a 96 well pandex plate. The assay is run in 0.1 M sodium acetate buffer at pH 5.5 in the presence of 1.0 M sodium chloride and 0.05% NP-40 and incubated in the dark for one hour at room temperature. Avidin coated polystyrene beads (40 μl of 0.1% (w/v)) are added and the incubation is continued in the dark for an additional half hour. The labeled cleavage product is separated from the unreacted substrate via filtration and is read on the IDEXX Screen Machine. (IDEXX Corporation--Portland, Maine) The data are analyzed by appropriate computer algorithms to ascertain percent inhibition values.
The Activity Table showing the results of the HIV Protease Inhibitory Assay appears below in TABLE 1. The table has three columns, the left column provides the code number of the compound for easy cross reference to structure tables and detailed procedures, the middle column provides the concentration of test compound and the column on the right provides the percent inhibition.

In test [1] the test system is viral reverse transcriptase. As to conditions: cited from earlier work.
The test system of a further test is HIV-I protease. As to conditions: Seelmeier et al.; cited from earlier work.
Where [2] appears, read: HIV-1 Dose 3.3 (unit not given).
The mark [3] stands for this setting: HIV-1 Dose 10.0 (unit not given).
Setting [4] is: HIV-1 Dose 30.0 (unit not given).

Square brackets hold non-standard residues; d marks the D form. Peptide text beside a SMILES is read from it. * marks the point of attachment. Sta = CC(C)C[C@H](N)[C@@H](O)CC(=O)O; Isovaleryl = CC(C)CC(=O)*

For `CCCC1(CCC)OC(=O)C(C(c2cccc(N(C)S(=O)(=O)c3ccc(C#N)cc3)c2)C2CC2)=C1O` (centres unmarked) [AX-1], the “% Inhibition” value on HIV-1 protease (setting [2]) amounted to 103.5%; at HIV-1 protease (setting [3]) it was 111.53%; at HIV-1 protease (setting [4]) it was 102.32%.
In the case of `Cc1cn([C@H]2C[C@H](N=[N+]=[N-])[C@@H](CO)O2)c(=O)[nH]c1=O` [AZT, 3-azido-3-deoxythymidine], the “inhibitor of viral reverse transcriptase” value in test [1] is “known inhibitor of viral reverse transcriptase”.
For `N#Cc1ccc(S(=O)(=O)Nc2cccc(C(C3=C(O)C4(CCN(C(=O)OCC5c6ccccc6-c6ccccc65)CC4)OC3=O)C3CC3)c2)cc1` (centres unmarked) [BX-1], the “% Inhibition” value at HIV-1 protease (setting [2]) stood at 113.09%; at HIV-1 protease (setting [3]), 126.98%; at HIV-1 protease (setting [4]) it was 123.63%.
On the same counts, the results for `N#Cc1ccc(S(=O)(=O)Nc2cccc(C(C3=C(O)C4(CCNCC4)OC3=O)C3CC3)c2)cc1` (centres unmarked) [BX-2] are 90.58%, 103.27% and 101.26%.
The like results for `N#Cc1ccc(S(=O)(=O)Nc2cccc(C(C3=C(O)C4(CCN(CC5c6ccccc6-c6ccccc65)CC4)OC3=O)C3CC3)c2)cc1` (centres unmarked) [BX-3] were, in that order, 108.72%, 107% and 103.12%.
On the same counts, the results for `CCN1CCC2(CC1)OC(=O)C(C(c1cccc(NS(=O)(=O)c3ccc(C#N)cc3)c1)C1CC1)=C2O` (centres unmarked) [BX-4] are 71.3%, 94.47% and 101.07%.
Take `CN1CCC2(CC1)OC(=O)C(C(c1cccc(NS(=O)(=O)c3ccc(C#N)cc3)c1)C1CC1)=C2O` (centres unmarked) [BX-5]: the results for the “% Inhibition” value at HIV-1 protease (setting [2]), at HIV-1 protease (setting [3]) and at HIV-1 protease (setting [4]) were 61.58%, 85.22% and 98.54%, respectively.
On the same counts, the results for `CC(=O)N1CCC2(CC1)OC(=O)C(C(c1cccc(NS(=O)(=O)c3ccc(C#N)cc3)c1)C1CC1)=C2O` (centres unmarked) [CX-1] are 107.43%, 98.33% and 103.37%.
Consider `N#Cc1ccc(S(=O)(=O)Nc2cccc(C(C3=C(O)C4(CCN(C(=O)c5ccccc5)CC4)OC3=O)C3CC3)c2)cc1` (centres unmarked) [CX-2], for which the “% Inhibition” value at HIV-1 protease (setting [2]) is on record as 107.56%; at HIV-1 protease (setting [3]), 109.04%; at HIV-1 protease (setting [4]), 110.58%.
As for `CCCC1(CCC)OC(=O)C(C(c2cccc(NS(=O)(=O)c3cccnn3)c2)C2CC2)=C1O` (centres unmarked) [DX-1], the results for the “% Inhibition” value at HIV-1 protease (setting [2]), on HIV-1 protease (setting [3]) and at HIV-1 protease (setting [4]) were 108.97%, 109.57% and 113.85%, respectively.
For the compound `CCC1CCCCC12OC(=O)C(C(c1cccc(NS(=O)(=O)c3ccc(C#N)cc3)c1)C1CC1)=C2O` (centres unmarked) [DX-2], the entries for the “% Inhibition” value at HIV-1 protease (setting [2]), at HIV-1 protease (setting [3]) and on HIV-1 protease (setting [4]) were 115.79%, 115.80% and 113.98%, respectively.
On the same counts, the results for `CCC1CCCCC12OC(=O)C(C(c1cccc(NS(=O)(=O)c3ccc(C#N)cc3)c1)C1CC1)=C2O` (centres unmarked) [DX-3] are 117.26%, 110.16% and 113.83%.
The like results for `C=CCC1(CC=C)OC(=O)C(C(c2ccccc2)C2CC2)=C1O` (centres unmarked) [DX-4] were, in that order, 108.42%, 106.81% and 106.29%.
As for `CC(C)CC(=O)N[C@H](C(=O)N[C@H](C(=O)N[C@@H](CC(C)C)[C@@H](O)CC(=O)N[C@@H](C)C(=O)N[C@@H](CC(C)C)[C@@H](O)CC(=O)O)C(C)C)C(C)C` [Pepstatin A] (Isovaleryl-VV[Sta]A[Sta]-OH), the “inhibitor of HIV-I protease” value in the test with HIV-I protease is “inhibitor of HIV-I protease”.

The values are drawn from US6060600A, “Substituted tetronic acids useful for treating HIV and other retroviruses” (Pharmacia & Upjohn Company, priority 1997, dated 2000).
